Data set [1] is described as follows: Stability in mouse plasma assessed as parent compound remaining after 24 hrs. In kind it is ADME, cell-free. Particulars: read-out: Stability.
For data set [2], the target named is T1, Transmembrane protease serine 6 (Homo sapiens, UniProt Q8IU80).
T1 sequence (Q8IU80 whole entry): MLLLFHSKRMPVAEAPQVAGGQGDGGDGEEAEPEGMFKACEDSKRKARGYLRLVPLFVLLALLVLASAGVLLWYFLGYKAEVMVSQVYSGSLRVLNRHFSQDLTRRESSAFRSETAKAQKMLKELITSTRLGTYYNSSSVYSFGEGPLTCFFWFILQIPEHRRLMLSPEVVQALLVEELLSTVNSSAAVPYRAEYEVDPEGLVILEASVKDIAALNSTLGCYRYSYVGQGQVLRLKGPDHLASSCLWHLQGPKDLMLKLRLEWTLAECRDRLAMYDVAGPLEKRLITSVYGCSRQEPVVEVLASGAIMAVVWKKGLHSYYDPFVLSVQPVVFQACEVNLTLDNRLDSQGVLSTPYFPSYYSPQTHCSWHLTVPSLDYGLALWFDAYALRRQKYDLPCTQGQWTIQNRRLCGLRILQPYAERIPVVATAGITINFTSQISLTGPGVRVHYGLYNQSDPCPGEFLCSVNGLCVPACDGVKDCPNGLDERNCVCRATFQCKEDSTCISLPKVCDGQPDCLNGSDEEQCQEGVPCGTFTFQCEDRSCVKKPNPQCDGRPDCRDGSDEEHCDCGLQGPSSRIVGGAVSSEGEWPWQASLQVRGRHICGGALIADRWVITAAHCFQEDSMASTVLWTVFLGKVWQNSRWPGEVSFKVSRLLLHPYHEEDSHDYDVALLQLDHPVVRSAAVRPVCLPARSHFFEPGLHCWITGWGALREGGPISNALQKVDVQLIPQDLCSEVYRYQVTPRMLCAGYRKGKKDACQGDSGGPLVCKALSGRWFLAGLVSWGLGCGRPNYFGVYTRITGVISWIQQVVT
Description: Inhibition of recombinant human C-terminal V5-His-tagged matriptase-2 expressed in Drosophila S2 cells using Boc-Gln-Ala-ArgAMC as substrate measured for 1200 mins by fluorescence assay.

In data set [3] the target is T2, Suppressor of tumorigenicity 14 protein (Homo sapiens, UniProt Q9Y5Y6).
T2 sequence (Q9Y5Y6 whole entry): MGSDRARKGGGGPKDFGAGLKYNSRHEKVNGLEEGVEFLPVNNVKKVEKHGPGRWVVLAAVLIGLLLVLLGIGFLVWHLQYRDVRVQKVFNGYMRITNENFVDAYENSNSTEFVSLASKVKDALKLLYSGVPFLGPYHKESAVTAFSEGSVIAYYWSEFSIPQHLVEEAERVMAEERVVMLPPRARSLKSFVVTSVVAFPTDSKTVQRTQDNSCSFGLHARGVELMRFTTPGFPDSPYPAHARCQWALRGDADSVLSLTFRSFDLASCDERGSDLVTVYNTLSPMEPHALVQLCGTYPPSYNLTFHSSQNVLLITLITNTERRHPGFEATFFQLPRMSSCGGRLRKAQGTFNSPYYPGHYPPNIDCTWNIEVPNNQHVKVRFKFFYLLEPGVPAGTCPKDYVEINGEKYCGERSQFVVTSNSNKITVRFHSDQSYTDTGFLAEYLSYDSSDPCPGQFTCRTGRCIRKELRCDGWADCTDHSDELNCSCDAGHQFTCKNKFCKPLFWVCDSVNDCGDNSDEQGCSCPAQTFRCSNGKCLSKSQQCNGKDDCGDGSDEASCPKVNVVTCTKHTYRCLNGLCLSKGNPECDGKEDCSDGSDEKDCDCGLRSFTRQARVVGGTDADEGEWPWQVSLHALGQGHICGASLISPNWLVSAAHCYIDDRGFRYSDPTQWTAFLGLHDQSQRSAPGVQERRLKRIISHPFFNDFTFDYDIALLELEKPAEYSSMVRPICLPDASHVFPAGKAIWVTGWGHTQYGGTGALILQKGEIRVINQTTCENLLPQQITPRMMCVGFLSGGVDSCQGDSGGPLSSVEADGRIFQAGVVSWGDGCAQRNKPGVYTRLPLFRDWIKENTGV
Description: Inhibition of recombinant human matriptase (596 to 855 residues) expressed in Escherichia coli using Boc-Gln-Ala-ArgAMC as substrate measured for 1200 mins by fluorescence assay

The species entered for the next data set is Homo sapiens. Description: Selectivity ratio of Ki for recombinant human matriptase (596 to 855 residues) expressed in Escherichia coli to Ki for recombinant human C-terminal V5-His-tagged matriptase-2 expressed in Drosophila S2 cells.
Data set [4] addresses T3, Transmembrane protease serine 6 (Homo sapiens) (UniProt Q8IU80).
T3 sequence (whole entry): T1 sequence (Q8IU80 whole entry)
Kind of data set: Reversible inhibition of recombinant human C-terminal V5-His-tagged matriptase-2 expressed in Drosophila S2 cells assessed as dissociation half time using Boc-Gln-Ala-ArgAMC as substrate measured for 1200 mins by fluorescence assay.

Molecules are shown by their SMILES.

In the case of `CC(C)[C@H](NC(=O)[C@H](Cc1cscn1)NC(=O)CCc1ccccc1)C(=O)N[C@@H](CCCNC(=N)N)C(=O)c1nc2ccccc2s1`, the remaining at 24 h in data set [1] is more than 75%. Further, the results for the Ki in data set [2] and in data set [3] were 0.4 to 1.2 nM and 4 to 12 nM, respectively. For the same molecule, the Ratio Ki in the data set listed under Homo sapiens came to 10. In addition, the T1/2 in data set [4] is 48 min.

For `CC(C)[C@H](NC(=O)C(Cc1ccc(O)cc1)NC(=O)CCc1ccc(O)cc1)C(=O)N[C@@H](CCCNC(=N)N)C(=O)c1nc2ccccc2s1` (single isomer, unassigned), the remaining at 24 h in data set [1] amounted to 40%. In addition, the Ki in data set [2] is 1.2 to 2 nM; in data set [3], 34 to 38 nM. Moreover, in the data set listed under Homo sapiens, the Ratio Ki is 17. Further, the T1/2 in data set [4] was determined as 24 min.

For `CC[C@H](NC(=O)[C@H](CCc1ccccc1)NC(=O)CCc1ccccc1)C(=O)N[C@@H](CCCNC(=N)N)C(=O)c1nc2ccccc2s1`, the Ki in data set [2] is 1.5 to 1.6 nM; in data set [3], 20 to 21 nM. Also, the Ratio Ki in the data set listed under Homo sapiens came out at 13. In data set [4], the T1/2 came out at 18 min.

These data come from ChEMBL document CHEMBL4007428, “Modulating the selectivity of matriptase-2 inhibitors with unnatural amino acids” (Eur J Med Chem, 2017).
